Measured values: patent US12133908B2, “Personal care composition comprising taurine, arginine, glycine” (Colgate-Palmolive Company, priority 2015, dated 2024)

Key:
[1] = tested on: 3D EpiDerm skin models (SIT 200 skin irritation model); test: in vitro skin irritation assay, IL-1α release by ELISA; type: cell-based
Protocol: To measure skin irritation, in vitro experiments are conducted using 3D EpiDerm skin models (SIT 200 skin irritation model, MatTek Corporation, Ashland, MA 01721). The irritation assay measures IL-la protein released by the cells to the media to evaluate the level of skin irritation and inflammation. In vitro skin samples are treated topically with 30 μl of test compounds (taurine (1% by weight) or taurine-L-arginine-glycine complex (1% by weight) of 2:1:1 (a mixture of 0.5% taurine, 0.25% L-arginine and 0.25% glycine, by weight) for 1 hour in tissue culture incubator. To induce irritation, cells are co-treated with 0.05% SDS and the test compounds. Following the incubation, skin samples are washed with PBS and placed in a culture medium and incubated for 24 hours. Cell culture media are collected for IL-la release assay. IL-la release is analyzed by ELISA assay kit (R&D Systems, Minneapolis, MN 55413). The greater IL-la release, the greater the irritation potential. […] Samples 1-6 are evaluated in the in vitro irritation assay as described above in Example 2.

HaCaT cells = test: in vitro migration assay (scratch gap closure) for barrier repair; type: cell-based, human; details: 24 hours incubation, taurine 0.0005% alone or with L-arginine 0.0001% and glycine 0.0001% (Example 1)
Protocol: To determine barrier repair function of taurine combined with L-arginine and glycine, in vitro experiments are conducted using HaCaT cells. HaCaT cells are spontaneously transformed aneuploid immortal keratinocyte cell line from adult human skin and are grown until 100% confluent. After that, each well is scratched with 1000 μl tip to create the gap and washed with 1 ml of PBS twice to eliminate dead floating cells. Following that, cells are treated with 1 ml of culture media for control (untreated), Taurine (0.0005% by weight), and amino acid complex of taurine (0.0005% by weight) combined with L-arginine (0.0001% by weight) and glycine (0.0001% by weight). Then, initial measurements of gap distance are taken using microscope (OLYMPUS IX71). Next, the treated cells are incubated for 24 hours and measurements are taken again.
The migration assay measures cell migration in order to evaluate the barrier repair.

| Compound | IL-1α release (% of control) ([1]; 0.05% SDS alone (Example 2)) | IL-1α release (% of control) ([1]; 0.05% SDS alone (Example 4)) | increase of IL-1α release ([1]; 0.05% SDS alone vs untreated (Example 2)) | Cell migration in 24hr (% of control) (HaCaT cells) | IL-1α release (% of control) ([1]; 1% test compound co-treated with 0.05% SDS (Example 4)) | IL-1α release (% of control) ([1]; 30 μl of 1% test compound co-treated with 0.05% SDS for 1 hour, then 24 hours in medium (Example 2)) |
| --- | --- | --- | --- | --- | --- | --- |
| CCCCCCCCCCCCOS(=O)(=O)[O-].[Na+] [SDS, sodium dodecyl sulfate] | 120 % of control | 140 % of control | 20% | – | – | – |
| NCCS(=O)(=O)O [taurine, 2-aminoethanesulfonic acid] | – | – | – | 66 % of control | 114 % of control | 70 % of control |
